Publication PMC4721062, “Oxadiazole-2-oxides may have other functional targets, in addition to SjTGR, through which they cause mortality in Schistosoma japonicum” (Parasites & Vectors, 2016)
Like-named read-outs stand apart in the source and are kept apart here.

Legend:
recombinant SjTGR = target: T1, recombinant SjTGR (Schistosoma japonicum, UniProt B5THG7); experiment: Inhibition of TrxR activity of recombinant SjTGR (DTNB assay); format: biochemical; details: 50 nM SjTGR, 1 mM NADPH, 15 min preincubation, DTNB reduction
T1 sequence (B5THG7 1-596): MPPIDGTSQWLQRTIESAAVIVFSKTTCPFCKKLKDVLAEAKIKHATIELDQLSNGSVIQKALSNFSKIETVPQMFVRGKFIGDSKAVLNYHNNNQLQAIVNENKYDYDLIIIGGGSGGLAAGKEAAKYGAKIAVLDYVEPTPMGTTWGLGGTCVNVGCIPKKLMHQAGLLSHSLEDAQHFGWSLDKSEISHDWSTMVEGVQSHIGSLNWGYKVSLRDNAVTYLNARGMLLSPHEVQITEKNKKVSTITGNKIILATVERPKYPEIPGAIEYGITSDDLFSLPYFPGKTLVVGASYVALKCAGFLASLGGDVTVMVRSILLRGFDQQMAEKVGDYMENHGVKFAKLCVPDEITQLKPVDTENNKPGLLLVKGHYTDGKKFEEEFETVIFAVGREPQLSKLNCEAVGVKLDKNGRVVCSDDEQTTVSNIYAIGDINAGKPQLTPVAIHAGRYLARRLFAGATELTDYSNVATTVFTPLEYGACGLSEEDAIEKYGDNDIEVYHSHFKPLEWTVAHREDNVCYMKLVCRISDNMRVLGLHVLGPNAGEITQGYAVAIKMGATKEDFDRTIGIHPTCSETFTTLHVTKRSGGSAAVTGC
Method in brief: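 SjTGR (50 nM) preincubated 15 min at room temperature with 1 mM NADPH and oxadiazole-2-oxides (2-20 μM). Reaction started with potassium phosphate pH 7.4, 10 mM EDTA, 100 μM NADPH, 3 mM DTNB; A412 increase followed over first 2 min, triplicates.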

adult S. japonicum = experiment: microbe, parasite or virus in culture; format: cell-based; details: for killing at 25 µM / killing at 50 µM / killing at 100 µM / Killing activity 24hr / Killing activity 48hr / Killing activity 72hr: adult worms; for Killing activity 24hr / Killing activity 48hr / Killing activity 72hr: 10 μM
Method in brief: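 Adult worm pairs recovered by portal perfusion from ICR mice 35 days after infection with 50 cercariae, cultured in RPMI 1640 (pH 7.5, 20 mM HEPES, 10% FBS) at 37 °C, 5% CO2. Oxadiazole-2-oxides at 10, 25, 50, 100 μM; motility and survival scored microscopically at 24, 48, 72 h, death being no movement over 2 min; three independent experiments averaged.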

[1] = Schistosoma japonicum, 24 h, read-out: Killing activity 24hr
[2] = Schistosoma japonicum, 48 h, read-out: Killing activity 48hr
[3] = Schistosoma japonicum, 72 h, read-out: Killing activity 72hr
[4] = Schistosoma japonicum, 24 h, read-out: Mortality of adult worms
[5] = Schistosoma japonicum, 72 h, read-out: Mortality of adult worms

SMILES | IC50 (recombinant SjTGR; read-out: IC50 of SjTGR) [µM] | mortality at 100 µM (adult S. japonicum; Schistosoma japonicum, read-out: Mortality of adult worms) [%] | killing at 25 µM (adult S. japonicum; [1]) [%] | killing at 25 µM (adult S. japonicum; [2]) [%] | killing at 25 µM (adult S. japonicum; [3]) [%] | killing at 50 µM (adult S. japonicum; [1]) [%] | killing at 50 µM (adult S. japonicum; [2]) [%] | killing at 50 µM (adult S. japonicum; [3]) [%] | killing at 100 µM (adult S. japonicum; [1]) [%] | killing at 100 µM (adult S. japonicum; [2]) [%] | killing at 100 µM (adult S. japonicum; [3]) [%] | Killing activity 24hr (adult S. japonicum; 24 h) | Killing activity 48hr (adult S. japonicum; 48 h) | Killing activity 72hr (adult S. japonicum; 72 h) | mortality at 100 µM (adult S. japonicum; [4]) [%] | mortality at 100 µM (adult S. japonicum; Schistosoma japonicum, 48 h, read-out: Mortality of adult worms) [%] | IC50 (recombinant SjTGR; IC50 of SjTGR) [µM] | mortality at 25 µM (adult S. japonicum; [4]) [%] | mortality at 10 µM (adult S. japonicum; [5]) [%] | mortality at 50 µM (adult S. japonicum; [4]) [%]
COc1ccc(-c2no[n+]([O-])c2CO)cc1 [Compound 4a] | 2.7 | 100 | 50 | 100 | 100 | 88.9 | 100 | 100 | 100 | 100 | 100 | 37.5%D | 37.5%D | 50.0%D | – | – | – | – | – | –
Cc1ccc(-c2no[n+]([O-])c2CO)cc1 [Compound 4b] | 1.7 | – | 63.6 | 81.8 | 66.7 | 60 | 80 | 100 | 57.1 | 100 | 100 | n.e. | n.e. | n.e. | 57.1 ± 2.1 | 100 | – | – | – | –
COc1ccc(-c2no[n+]([O-])c2C#N)cc1 [Compound 7a] | – | – | 88.9 | 100 | 100 | 87.5 | 100 | 100 | 100 | 100 | 100 | 70.0%D | 100.0%D | 100.0%D | – | – | 12.2 | > 75 | 100 | –
Cc1ccc(-c2no[n+]([O-])c2C#N)cc1 [Compound 7b] | – | – | 100 | 100 | 100 | 100 | 100 | 100 | 100 | 100 | 100 | 16.7%D | 50.0%D | 83.3%D | – | – | 14.2 | > 75 | 83.3 ± 4.7 | –
N#Cc1c(-c2ccc(Br)cc2)no[n+]1[O-] [Compound 7c] | – | – | 77.8 | 100 | 100 | 100 | 100 | 100 | 100 | 100 | 100 | n.e. | 70.0%D | 70.0%D | – | – | 3.7 | > 75 | 70 ± 7.1 | 100
N#Cc1c(-c2ccc(O)cc2)no[n+]1[O-] [Compound 8] | – | – | 50 | 66.7 | 100 | 77.8 | 88.9 | 100 | 100 | 100 | 100 | n.e. | 57.1%D | 71.4%D | – | – | 37.4 | – | 71.4 ± 0.9 | –
N#Cc1c(-c2ccc(OCCBr)cc2)no[n+]1[O-] [Compound 12] | 21.7 | – | 80 | 100 | 100 | 88.9 | 100 | 100 | 100 | 100 | 100 | sluggish | sluggish | 55.6%D | – | – | – | > 75 | – | –
